For 103 compounds, cytotoxicity results are on record in ChEMBL document CHEMBL3507680, “University of Dundee, Gates Library screen for HepG2 cell viability”.

The nature of the series: Human HepG2 cell viability assay in 384 well format. The class given is toxicity, cell-based. Conditions: HepG2 cells, read-out: Inhibition. On the set-up: dose 125 nL, time 70.5 hour; cytotoxicity at 70.5 h: concentration not given beside the values.

For the compound `COCCN(Cc1ccc(F)cc1Cl)C(=O)c1ccccn1`, the cytotoxicity at 70.5 h was 9.84%.

For the compound `CCCc1n[nH]c(C2CN(C(=O)Cc3ccc(C)nc3)CCO2)n1` (stereo not drawn), the cytotoxicity at 70.5 h was -1.25%. For the compound `CN(Cc1cnn(C)c1)C1CCCN(Cc2noc(C3CC3)n2)C1` (stereo not drawn), the cytotoxicity at 70.5 h was found to be 50.1%. For the compound `CC1(NC(=O)Cc2csc(NC(=O)c3ccccc3)n2)CCS(=O)(=O)C1` (stereo not drawn), the cytotoxicity at 70.5 h was -71.2%. Regarding `CCSc1cc(C(=O)NCc2ccc(C(=O)NC)cc2)ccn1`, the cytotoxicity at 70.5 h is -81.1%.

Consider `O=C(NCCCn1cccn1)C1(c2cccc(Cl)c2)CC1`, for which the cytotoxicity at 70.5 h is 55.5%.

Turning to `CC(CN1CCCC1=O)NC(=O)c1ccc(-c2ccco2)[nH]c1=O` (stereo not drawn), the cytotoxicity at 70.5 h was -96.6%.

As to `Cc1ncc2c(n1)CN(Cc1nc(C)c(C)o1)CC2`, the cytotoxicity at 70.5 h is -100%. For `COCCOc1nc(-c2ccccc2Cl)no1`, the cytotoxicity at 70.5 h is -78.8%. In the case of `CC1(NC(=O)Cc2csc(-c3ccccc3Cl)n2)CCS(=O)(=O)C1` (stereo not drawn), the cytotoxicity at 70.5 h was -88.9%.

Take `Cc1cc(NC2CCc3ncnn3C2)n2ncnc2n1` (stereo not drawn): the cytotoxicity at 70.5 h is -106%. Turning to `Cc1n[nH]c(C2CN(CC(=O)NCCc3ccccc3C)CCO2)n1` (stereo not drawn), the cytotoxicity at 70.5 h was -109%. In the case of `Cc1n[nH]c(C2CN(CC(=O)NCc3cccs3)CCO2)n1` (stereo not drawn), the cytotoxicity at 70.5 h is -86.1%. In the case of `O=C(NCc1ccco1)N1CCC(n2ccc(C(F)(F)F)n2)CC1` it was -82.9%; in that of `CCNC(=O)N1CCC(n2ccc(C(F)(F)F)n2)CC1`, 38.9%. `COCC(C)NC(=O)NCCCc1cc(N)n(-c2ccccc2)n1` (stereo not drawn): the cytotoxicity at 70.5 h was -108%. Regarding `Cc1n[nH]c(C2CN(CC(=O)NCCc3ccccc3)CCO2)n1` (stereo not drawn), the cytotoxicity at 70.5 h was 9%.

As to `CC(OCC(F)(F)F)C(=O)N1CCCC1` (stereo not drawn), the cytotoxicity at 70.5 h was -61.3%. With `CCOc1cc(CN(C)CC(C)(C)O)ccc1OC(F)F`, the cytotoxicity at 70.5 h is 4.76%. On to `O=C(c1cc(Cl)c2c(c1)OCO2)N1CCN(c2ncccn2)CC1`, for which the cytotoxicity at 70.5 h turned out to be 30.1%.

As to `O=S(=O)(NCC1COc2ccccc2C1)N1CCOCC1` (stereo not drawn), the cytotoxicity at 70.5 h was -3.96%. As for `O=C(c1ccc(O)c(Cl)c1)N1CCN(c2nccs2)CC1`, the cytotoxicity at 70.5 h is -9.18%. `Cc1ccc(C(=O)NC2CCN(Cc3noc(C(C)(C)C)n3)CC2)s1`: the cytotoxicity at 70.5 h was -14.3%.

Turning to `Cc1ccc(C(=O)NC2CCN(Cc3noc(C(C)C)n3)CC2)s1`, the cytotoxicity at 70.5 h is -8.2%. In the case of `CCc1noc(CN2CCC(NC(=O)c3ccc(C)s3)CC2)n1`, the cytotoxicity at 70.5 h is -9.12%. Consider `Cc1cc(CN2CCN(C(=O)C(C(C)C)n3cncn3)CC2)on1` (stereo not drawn), for which the cytotoxicity at 70.5 h was -10.4%.

On to `Cc1ccc(-n2nnc(CC(=O)N3CCN(C(C)C)CC3)c2C)cc1`, for which the cytotoxicity at 70.5 h is -10.5%. For `Cc1cccc(C)c1OCC(O)CNCc1c(C)nn(C)c1N(C)C` (stereo not drawn), the cytotoxicity at 70.5 h is -4.45%.

As to `Cc1c(CC(=O)N2CCN(C(C)C)CC2)nnn1-c1ccccc1`, the cytotoxicity at 70.5 h was determined as 23.6%. As to `Cc1cccc(OCC(O)CNCc2c(C)nn(C)c2N(C)C)c1` (stereo not drawn), the cytotoxicity at 70.5 h is -8.26%.

For `CC(C)C(C(=O)N1CCN(Cc2ccccn2)CC1)n1cncn1` (stereo not drawn), the cytotoxicity at 70.5 h is -10.2%.

For `Cc1oc(-c2ccsc2)nc1CC(=O)NCCCS(C)(=O)=O`, the cytotoxicity at 70.5 h worked out at 15.4%. The value for `Cc1oc(-c2ccsc2)nc1CC(=O)NCC(=O)Nc1cn[nH]c1` was -13%.

Turning to `Cc1cccc(-c2nc(CN3CC(n4nc(C)cc4C)C3)no2)c1`, the cytotoxicity at 70.5 h was -4.09%. For `CN(Cc1noc(C(C)(C)C)n1)Cc1ccccc1N1CCCC1`, the cytotoxicity at 70.5 h is -8.02%. Turning to `Cn1nc2c(cc1=O)CN(Cc1nc(N)c3ccccc3n1)CC2`, the cytotoxicity at 70.5 h is 7.46%. Take `CCNC(=O)CCCC(=O)N1CCc2cc(Cl)cc(Cl)c2C1`: the cytotoxicity at 70.5 h was -4.11%.

With `O=C(CCc1ccncc1)N1CCc2cc(Cl)cc(Cl)c2C1`, the cytotoxicity at 70.5 h was found to be 17.4%. Take `Cc1noc(CN(Cc2cccs2)C2CC2)n1`: the cytotoxicity at 70.5 h stood at 17.3%. Consider `COCCc1noc(CN2CCCC2c2noc(C(C)C)n2)n1` (stereo not drawn), for which the cytotoxicity at 70.5 h was 17.1%. Take `Cc1nn(C)c(N(C)C)c1CNCC(O)COc1cccc(F)c1` (stereo not drawn): the cytotoxicity at 70.5 h was -11.4%. In the case of `Cc1cnn(CCNCC(O)c2ccc(F)c(F)c2)c1` (stereo not drawn), the cytotoxicity at 70.5 h is 3.17%. Turning to `Cc1cc(NC(=O)c2ccccc2Br)n(C)n1`, the cytotoxicity at 70.5 h worked out at 2.28%. In the case of `COC(=O)c1cc(OC)c(OC)cc1NCc1c(C)noc1C` it was -2.42%. In the case of `O=c1[nH]ncc(NCCOc2ccc3c(c2)OCO3)c1Cl`, the cytotoxicity at 70.5 h is -8.71%.

Consider `Cc1cc(NC(=O)c2ccc(Br)cc2F)n(C)n1`, for which the cytotoxicity at 70.5 h was 12.5%. Turning to `O=c1[nH]ncc(NCCOc2ccc3c(c2)CCC3)c1Cl`, the cytotoxicity at 70.5 h is -11.7%.

Regarding `CN(CC(=O)Nc1cc(CC2CCCCC2)n[nH]1)S(C)(=O)=O`, the cytotoxicity at 70.5 h was -4.16%. Turning to `c1ccc(-c2cc(CN3CCc4cncnc4C3)on2)cc1`, the cytotoxicity at 70.5 h is -4.72%. For `Cc1ccc(-c2cc(CN3CCc4cnc(C)nc4C3)on2)cc1`, the cytotoxicity at 70.5 h was -10.1%. As to `Cc1cnn(CCNCc2ccc(S(C)(=O)=O)cc2)c1`, the cytotoxicity at 70.5 h was -4.97%. Regarding `Cc1cnn(CCNCC(O)c2cccc(Br)c2)c1` (stereo not drawn), the cytotoxicity at 70.5 h is -8.97%. Turning to `Cc1c(Br)cccc1S(=O)(=O)NCc1ccnn1C`, the cytotoxicity at 70.5 h is -3.27%.

On to `COCCCNS(=O)(=O)c1cc(C)sc1C`, for which the cytotoxicity at 70.5 h is -6.05%. The value for `Cc1ccc(CN(C)C(=O)c2cccc(NC(N)=O)c2)o1` was -11.5%; that for `COc1ccc(C(C)NC(=O)Nc2nccs2)cc1OC` (stereo not drawn) was -8.99%; that for `Cc1ccc(CN(C(=O)c2cccc(NC(N)=O)c2)C2CC2)o1` was -10.5%. Consider `CC(C)N(C)C(=O)c1ccc(Cl)c(NC(=O)C2CCC2)c1`, for which the cytotoxicity at 70.5 h amounted to 19.4%. Consider `CNC(=O)NC(=O)CCSc1ccccc1C`, for which the cytotoxicity at 70.5 h was -0.594%.

As for `CN1CCC(NC(=O)Cc2csc(C(C)(C)C)n2)CC1`, the cytotoxicity at 70.5 h was -10.5%. The value for `CC(C)N(C)C(=O)c1ccc(Cl)c(NC(=O)COCC2CC2)c1` was -6.46%; that for `O=C(Nc1cc(-c2ccccc2)on1)N1CC[C@H](O)C1` was -1.65%; that for `CCc1noc(CC)c1CC(=O)N1CCN(C(=O)C2CCCC2)CC1` was -9.43%.

As for `CCc1noc(CC)c1CC(=O)N1CCN(C(C#N)C(C)C)CC1` (stereo not drawn), the cytotoxicity at 70.5 h was -8.63%. In the case of `NC(=O)CCSCc1cc(Br)cc2cccnc12` it was 10.9%; in that of `CCCNC(=O)C(C)Nc1ccc(COCC)cc1` (stereo not drawn), -0.943%; in that of `Cc1nc(CNC(=O)Nc2ccc3c(ccn3CCN(C)C)c2)no1`, -2.87%. Turning to `NC(=O)NC(=O)CCSc1ccccc1Cl`, the cytotoxicity at 70.5 h is -17.5%. For `CC(SCCS(C)(=O)=O)c1nc(Cc2ccccc2)no1` (stereo not drawn), the cytotoxicity at 70.5 h was -7.83%. In the case of `CCc1noc(CC)c1CC(=O)N1CCCC(N2CCCCC2)C1` (stereo not drawn), the cytotoxicity at 70.5 h was -8.14%. For `CCS(=O)(=O)c1nccn1-c1cccc(F)c1`, the cytotoxicity at 70.5 h was -9.95%. `CCN(CCc1nccs1)C(=O)c1ccco1`: the cytotoxicity at 70.5 h is -7.04%.

For the compound `CN(CCCc1ccc(C(F)(F)F)cc1)Cc1nccn1C`, the cytotoxicity at 70.5 h was -12%. In the case of `CCC1CN(CC(=O)NCC(C)C)CCO1` (stereo not drawn), the cytotoxicity at 70.5 h is -10.6%. Take `CCOCCN1CCc2cncnc2C1`: the cytotoxicity at 70.5 h came out at 27.9%. Turning to `Cc1noc(C2CCCN(CC(=O)N3CCNC(=O)C3)C2)n1` (stereo not drawn), the cytotoxicity at 70.5 h is -4.79%.

In the case of `CCc1noc(CCCC(=O)Nc2cc(C(F)(F)F)c[nH]c2=O)n1`, the cytotoxicity at 70.5 h is 0.169%. Regarding `CC(C)c1noc(CCC(=O)Nc2cc(C(F)(F)F)c[nH]c2=O)n1`, the cytotoxicity at 70.5 h was -3.33%. With `Cn1cc(C(=O)N(Cc2ccco2)Cc2cccs2)ccc1=O`, the cytotoxicity at 70.5 h was -8.8%. With `COc1ccc(CC(=O)N2CCC(c3n[nH]c(C4CC4)n3)CC2)cc1`, the cytotoxicity at 70.5 h stood at 2.82%.

With `COc1ccc(C(=O)NCCCNc2ncccn2)c(OC)c1`, the cytotoxicity at 70.5 h was -7.46%. The value for `NC(=O)C1=NC2=NS(=O)(=O)c3ccccc3N2N1Cc1ccc(Br)cc1` was -7.39%.

Turning to `Cc1ccc(CNC(=O)c2c[nH]nc2NC(=O)COCC2CC2)cc1`, the cytotoxicity at 70.5 h is -3.76%. With `Cc1ccc(CNC(=O)c2c[nH]nc2NC(=O)C2CCC2)cc1`, the cytotoxicity at 70.5 h was -7.26%. In the case of `CCOc1ccc(NC2CCN(C)C2=O)cn1` (stereo not drawn) it was -3.61%; in that of `CCC(C)Oc1cc(C(=O)Nc2nc(C)ns2)ccn1` (stereo not drawn), -0.392%. As for `CCCc1nnc(NCc2ccc(OC)c(C#N)c2)o1`, the cytotoxicity at 70.5 h amounted to 20.2%.

Turning to `CC(C)OCc1cccc(NC(=O)N(C)Cc2ncnn2C)c1`, the cytotoxicity at 70.5 h is -9.1%. With `CCSCc1cccc(NC(=O)N(C)Cc2ncnn2C)c1`, the cytotoxicity at 70.5 h was -3.07%. The value for `CC(C)Nc1cccc(CNC(=O)N2CCC[C@@H]2CO)c1` was -2.37%; that for `CCN(C(=O)NCc1ncc(C)c(OC)c1C)C(C)c1cccnc1` (stereo not drawn) was -9.02%; that for `OC(COCc1cccs1)CSc1nnc2ccccn12` (stereo not drawn) was 22.9%. In the case of `CC(=O)N(CCc1ccccc1)CC(=O)NC1(C#N)CC1` it was -0.397%.

Regarding `Cc1cc(S(=O)(=O)Nc2onc(C)c2C)c(C)s1`, the cytotoxicity at 70.5 h was -3.24%. For the compound `CCN1CCN(C(=O)NCc2cccc(-c3cnn(C)c3)c2)CC1`, the cytotoxicity at 70.5 h was -2.59%. For the compound `Cc1nc(C2CCCN2C(=O)c2ccc(=O)n(C)n2)no1` (stereo not drawn), the cytotoxicity at 70.5 h was -5.27%. For the compound `c1cncc(CN2CCC(NCCc3ccc4c(c3)OCO4)CC2)c1`, the cytotoxicity at 70.5 h worked out at 0.189%.

Consider `Cc1ccsc1CN(C)C(=O)C1CCCN(C(N)=O)C1` (stereo not drawn), for which the cytotoxicity at 70.5 h is -8.56%. For the compound `Cc1cccc(C(C)(C)CNc2cn[nH]c(=O)c2Cl)c1`, the cytotoxicity at 70.5 h is 18.4%. The value for `CC(C)(CNc1cn[nH]c(=O)c1Cl)c1ccc2c(c1)OCO2` was -13.4%; that for `CC(C)c1ccc(O)c(C(=O)NC2CCN(c3ncccn3)CC2)c1` was -19.5%. The value for `CN(C(=O)CN1CCC(c2cc3ccccc3[nH]2)CC1)C1CC1` was -8.97%; that for `CN(C)C(=O)CN1CCN(C(=O)C2CSc3ccccc3O2)CC1` (stereo not drawn) was -16.2%.
